The values that follow come from patent US20230293611A1, “NATURAL PRODUCT EXTRACTS AND METHODS OF USE THEREOF” (THE ADORED BEAST APOTHECARY LTD., priority 2020, published 2023).

What is called viability is a read-out of living cells in per cent, often relative to untreated cells.

The subject of assay [1] is MDA-MB-231 cells. The assay can be described thus: MTS assay (Example 1). The settings on record: Homo sapiens, positive control 50 μM, 24 h, mean±SEM, n=3, read-out: MDA-MB-231 cell viability. The class given is cell-based. As to the method: (§1) • (a) Solvent extraction: Four different solvents were used, namely, methanol, hexane:ethyl acetate (39:1), ethyl acetate, and water. Briefly, 2 g of the test material (MH/GL) were dissolved in 80 ml of appropriate solvents (methanol/hexane:ethyl acetate/ethyl acetate), sonicated twice for 20 min at room temperature (RT), and centrifuged at 3000 rpm for 10 min. The supernatant was collected and evaporated using a rotary evaporation system at 65° C. The concentrated extract was subjected to nitrogen evaporation to remove all the solvent, then dissolved in DMSO to a final concentration of 60 mg/ml. For water extraction, 2 g of the test material was dissolved in 80 ml water, sonicated twice for 20 min at RT, kept at RT for three days, vortexed, and centrifuged at 3000 rpm for 10 min. The supernatant was then freeze-dried into powder. The powder was dissolved in DMSO to a final concentration of 60 mg/ml. • (b) MTS assay: The potential inhibitory effects of MH and GL extracts on HepG2 and MDA-MB-231 cells were measured using MTS assay. Briefly, 6000 cells were seeded and treated with different concentrations (6.25, 12.5, 25, 50, 100, 150, and 300 μg/ml) of extracts for 24 h. Then, MTS/PMS reagent was added and absorbance was measured at 490 nm using a plate reader. Sorafenib (20 μM) and doxorubicin (50 μM) were used as positive controls for HepG2 and MDA-MB-231 cells, respectively. […]
On the technique in general: Formazan colour is commonly taken as a measure of viable cells.

The test system of assay [2] is HepG2 cells. Briefly: MTS assay (Example 1). The class given is cell-based. The settings on record: Homo sapiens, positive control 20 μM, 24 h, mean±SEM, n=3, read-out: HepG2 cell viability. As to the method:
as §1

As to `COc1cccc2c1C(=O)c1c(O)c3c(c(O)c1C2=O)C[C@@](O)(C(=O)CO)C[C@@H]3O[C@H]1C[C@H](N)[C@H](O)[C@H](C)O1` [doxorubicin], the viability at 50 µM in assay [1] was determined as 24.4 ± 5.1%.
For the compound `CNC(=O)c1cc(Oc2ccc(NC(=O)Nc3ccc(Cl)c(C(F)(F)F)c3)cc2)ccn1` [sorafenib], the viability at 20 µM in assay [2] worked out at 26 ± 3.7%.
